# Assay results as given in patent publication US8354382B2, “Hemifumarate of a pyrazole derivative” (Kissei Pharmaceutical Co., Ltd., priority 2008, dated 2013).
# Legend:
# [1] = Storage Stability Test (Deliquescence); type: physicochemical; conditions: stored at 40° C. and 75% relative humidity; up to 2 months
# Protocol: The hemifumarate dihydrate of Example 1, the ¾ fumarate dihydrate of Comparative Example 1 and the above compound (B) were stored under a condition of 40° C. and 75% relative humidity, and existence or nonexistence of the deliquescence was examined.
# [2] = Storage Stability Test (Purity), purity by HPLC and appearance after storage; type: physicochemical; conditions: for Purity (%) after 2 months / Purity (%) at initial point: HPLC
# Protocol: The hemifumarate dihydrate of Example 1 and the above compound (B) each were stored under a condition of 40° C. and 75% relative humidity and 60° C. in open vessels, and the storage stability for 2 months was examined. […] Measurement conditions of HPLC are as follows.
# Detector: ultraviolet-visible absorption spectrophotometer, wavelength: 225 nm
# Column: LUNA C18(2) (produced by Phenomenex), 5 μm, 4.6×250 mm, particle diameter 100×10^−10 m
# Column Temperature: a constant temperature of around 25° C.
# Sample concentration: 1 mg/mL
# Mobile phase A: 10 mM dipotassium hydrogenphosphate aqueous solution adjusted to pH 7.8 with phosphoric acid
# Mobile phase B: acetonitrile
# Gradient of concentration:
# 0 minute: Mobile phase B=22%
# 30 minutes: Mobile phase B=22%
# 50 minutes: Mobile phase B=70%
# 60 minutes: Mobile phase B=70%
# Range of area measurement: for 50 minutes from the start of analysis, except for the areas of the peak of fumaric acid (retention time 2 minutes), the peak of diethyl fumarate which is an impurity (retention time around 44 minutes) and the peak of the blank solution.
# [3] = storage condition 40° C. and 75% relative humidity
# [4] = storage condition 60° C. in open vessels
smiles,measurement,setting,value
"Cc1cc(OCCCNCC(C)(C)C(N)=O)ccc1Cc1c(O[C@@H]2O[C@H](CO)[C@@H](O)[C@H](O)[C@H]2O)n[nH]c1C(C)C.O.O.O=C(O)/C=C/C(=O)O [Comparative Example 1, 3-(3-{4-[3-(β-D-Glucopyanosyloxy)-5-isopropyl-1H-pyazol-4-ylmethyl]-3-methyl-phenoxy}propylamino)-2,2-dimethylpropionamide ¾ fumarate dihydrate]",existence or nonexistence of the deliquescence,[1],deliquescence was observed from the initial point of the experiment
"Cc1cc(OCCCNCC(C)(C)C(N)=O)ccc1Cc1c(O[C@@H]2O[C@H](CO)[C@@H](O)[C@H](O)[C@H]2O)n[nH]c1C(C)C.O=C(O)/C=C/C(=O)O [Example 1, 3-(3-{4-[3-(β-D-Glucopyranosyloxy)-5-isopropyl-1H-pyrazol-4-ylmethyl]-3-methylphenoxy}propylamino)-2,2-dimethylpropionamide hemifumarate dihydrate]",Purity (%) after 2 months,[2]; [3],99.6%
same,Purity (%) at initial point,[2]; [3],99.5%
same,Appearance after 2 months,[2]; [4],White
same,Purity (%) after 2 months,[2]; [4],99.0%
same,Appearance at initial point,[2]; [4],White
same,Purity (%) at initial point,[2]; [4],99.5%
same,existence or nonexistence of the deliquescence,[1],no deliquescence during 2 months
"Cc1cc(OCCCNCC(C)(C)C(N)=O)ccc1Cc1c(O[C@@H]2OC(CO)[C@@H](O)C(O)C2O)n[nH]c1C(C)C (stereo partly drawn) [compound (B), 3-(3-{4-[3-(β-D-Glucopyanosyloxy)-5-isopropyl-1H-pyazol-4-ylmethyl]-3-methylphenoxy}propylamino)-2,2-dimethylpropionamide]",Purity (%) after 2 months,[2]; [3],97.0%
same,Purity (%) at initial point,[2]; [3],98.7%
same,Appearance after 2 months,[2]; [4],Brown
same,Purity (%) after 2 months,[2]; [4],95.3%
same,Appearance at initial point,[2]; [4],White
same,Purity (%) at initial point,[2]; [4],98.7%
same,existence or nonexistence of the deliquescence,[1],deliquescence was observed from the initial point of the experiment
